Results taken from patent US5162203A, “Methods of measuring isozymes and isozyme classes of alcohol dehydrogenase” (President and Fellows of Harvard College, priority 1989, dated 1992).

How the values were obtained:
[1] = Stability of substrates and product solutions; assay type: physicochemical; conditions: for stability in stock solution: 20° C., 30 days, water:acetonitrile (70:30 v/v)
Description: The dilute solutions (300 μM) were prepared by diluting 1 ml of the stock solution to 10 ml with water.
Concentrations were determined spectrophotometrically using a molar absorptivity of 5700 M^-1 cm^-1 at 296 nm for IB and 1270 M^-1 cm^-1 at 330 nm for IIB.

[2] = system: ADH in human serum (Class I); test: Fluorometric measurement of serum ADH activity with substrate IA; assay type: biochemical; conditions: between-run repeatability, 2 minutes reaction, n=5
Description: (§1) All reaction mixtures (3 ml total volume) were prepared directly in 1 cm pathlength, 4 ml fluorometric cuvettes by adding 150 μl of the 300 μM substrate solution (e.g substrate IA or IIA) 100 μl of the 1 mM NADH solution (prepared as in part 5 above) and 2.69 ml of assay buffer (0.1M phosphate, pH 7.6). After thermal equilibration (25° C.) for 5 minutes, 60 μl of isozyme sample (either serum or purified ADH isozymes) was added to the cuvette.
(§2) The linear increase of fluorescence was then recorded for 1-10 minutes, until 0.03-1 μM of substrate was consumed. Larger substrate consumption was not found to be desirable (described in subpart (c) below). […] The added product fluorescence intensity was then measured Fluorescence measurements were optimized for samples with low activity (<1 nM/minute). […] Rates measured in the presence of the 0.2 mM ADH inhibitors. […]
The rates of aldehyde reduction, determined as initial velocities (V) and expressed in units of nM/minute, were calculated according to: [formula] where the quantity in parentheses is the slope of the linear fluorescence increase calculated from the quantities Ft and FO, the fluorescence at time t and at the beginning of the reaction, respectively. Cst is the concentration of the product used as a standard added to the cuvette after the initial rate had been measured and Fst is the fluorescence intensity of the added product […]

β1 β1 ADH (Class I) = test: Kinetics of enzymatic reduction of methoxynaphthaldehydes by β1β1 ADH; assay type: biochemical, human; conditions: for Km / kcat: Table IV; for v/v (EtOH): rate relative to ethanol oxidation at pH 10.0
Description: Standard assays for ethanol oxidation activity (Dalziel, 1957, Acta Chem Scand 11:1706-23) were carried out on a Cary 219 spectrophotometer interfaced with an Apple IIe microcomputer, using software provided by Varian Associates. The reaction mixture contained 2.5 mM NAD^+ in 0.1M glycine-NaOH buffer. pH 10.0, and 33 mM or 0.2M ethanol for Class I and Class II ADH, respectively.
(§3) Aldehyde reduction was monitored by following the decrease of absorption at 340 nm in 40 mM Mes buffer, pH 7.1. in the presence of saturating NADH, 50 μM for Class I and 100 μM for Class II. […] Initial reaction rates were measured and kinetic parameters determined by conventional procedures as described by Segel, 1975, Enzyme Kinetics, pp. 591-597, Wiley, N.Y.
as §1
(§4) The linear increase of fluorescence was then recorded for 1-10 minutes, until 0.03-1 μM of substrate was consumed. Larger substrate consumption was not found to be desirable (described in subpart (c) below). After this period the instrument sensitivity setting was reduced 10-30 fold, the signal compensated once again by zero suppression (see part 6 above), and 60 μl of 200-400 μM product (e.g., product IB or IIB) was added to provide an internal standard. The added product fluorescence intensity was then measured Fluorescence measurements were optimized for samples with low activity (<1 nM/minute). For samples with higher activity, repeat measurements were made with the serum volume reduced from 60 μl to 10 μl. Rates measured in the presence of the 0.2 mM ADH inhibitors. 4-MeP or 4-PeP, were made by adding 50 μl of 12 mM inhibitor to the cuvette prior to the assay buffer, and the reaction was carried out as above.
(§5) The rates of aldehyde reduction, determined as initial velocities (V) and expressed in units of nM/minute, were calculated according to: [formula] where the quantity in parentheses is the slope of the linear fluorescence increase calculated from the quantities Ft and FO, the fluorescence at time t and at the beginning of the reaction, respectively. Cst is the concentration of the product used as a standard added to the cuvette after the initial rate had been measured and Fst is the fluorescence intensity of the added product
Additionally the reaction rates for these isozymes were compared to those measured by the standard assay for ethanol oxidation (see part 7 above) at pH 10.0 the optimum for oxidation of ethanol by ADH. The rate of IA reduction for all Class I isozymes except the β1 β1 form is 1.5- to 4-fold faster than that of ethanol oxidation as measured by the conventional ethanol oxidation assay. […] Table III illustrates that IIA is an excellent substrate for Class II (.eta.) ADH, with a rate of IIA reduction at least 8-fold faster than that of ethanol oxidation.

β2 β2 ADH (Class I) = biological target: T1, β2 β2 ADH (Class I) (Homo sapiens, UniProt P00325); test: Kinetics of enzymatic reduction of methoxynaphthaldehydes by β2β2 ADH; assay type: biochemical; conditions: Table IV; nm = not measurable
T1 construct: beta2 allele (ADH1B*2)
T1 sequence (P00325 2-375): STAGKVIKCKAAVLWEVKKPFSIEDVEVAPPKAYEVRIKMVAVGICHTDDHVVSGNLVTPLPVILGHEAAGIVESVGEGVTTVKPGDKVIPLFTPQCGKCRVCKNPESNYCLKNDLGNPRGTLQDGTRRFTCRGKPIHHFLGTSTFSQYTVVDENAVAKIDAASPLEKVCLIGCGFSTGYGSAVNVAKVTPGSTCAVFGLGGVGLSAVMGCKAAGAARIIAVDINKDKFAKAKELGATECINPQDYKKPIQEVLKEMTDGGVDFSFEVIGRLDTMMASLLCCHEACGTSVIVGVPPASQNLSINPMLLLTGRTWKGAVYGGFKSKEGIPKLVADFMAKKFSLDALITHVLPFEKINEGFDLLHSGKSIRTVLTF
Description: as §3
as §1, with “After thermal equilibration (25° C.) for 5 minutes, 60 μl of isozyme sample (either serum or purified ADH isozymes) was added to the cuvette.” left out
as §2, with “consumed.” for “consumed. Larger substrate consumption was not found to be desirable (described in subpart (c) below).”
The rates of aldehyde reduction, determined as initial velocities (V) and expressed in units of nM/minute, were calculated according to: [formula] where the quantity in parentheses is the slope of the linear fluorescence increase calculated from the quantities Ft and FO, the fluorescence at time t and at the beginning of the reaction, respectively. […]

[3] = Spectral parameters for absorption and fluorescence of ADH substrates and products; assay type: physicochemical; conditions: for total decrease of molar absorptivity (aldehyde/NADH system): 340 nm, 40 mM Mes buffer, pH 7.1, with NADH
Description: The spectral parameters for 4-methoxy-1-naphthaldehyde (IA), 6-methoxy-2-naphthaldehyde (IIA) and their reduction products (IB and IIB, respectively) are shown in Table I.
Ultraviolet absorption spectra were measured on a Cary 219 or Hewlett-Packard 8451 spectrophotometer. Fluorescence measurements were made in a Perkin Elmer MPF3 spectrofluorometer, equipped with an Osram XBO 150 Watt Xenon lamp, an R446 photomultiplier, and thermostatted cell holder through which water was passed from a Poly-Temp circulator with the following spectrometer settings: excitation wavelength 316 nm. bandwidth 8 nm for both substrate IA and IIA; emission wavelength. 370 nm for substrate IA and 360 nm for substrate IIA, emission bandwidth 24 nm. Changes in fluorescence as a result of oxidation or reduction of the substrate was then measured in the ratio mode. Generally, for fluorometric reactions (see part 8 below). a sensitivity setting of 3 was used with compensation of fluorescence background by the zero suppression control of the instrument.
as §3

Class III (.chi.) ADH = Class III (.chi.) ADH (Homo sapiens, UniProt P11766); test: Kinetics of enzymatic reduction of methoxynaphthaldehydes by Class III ADH; assay type: biochemical
Class III (.chi.) ADH, sequence (P11766 whole entry): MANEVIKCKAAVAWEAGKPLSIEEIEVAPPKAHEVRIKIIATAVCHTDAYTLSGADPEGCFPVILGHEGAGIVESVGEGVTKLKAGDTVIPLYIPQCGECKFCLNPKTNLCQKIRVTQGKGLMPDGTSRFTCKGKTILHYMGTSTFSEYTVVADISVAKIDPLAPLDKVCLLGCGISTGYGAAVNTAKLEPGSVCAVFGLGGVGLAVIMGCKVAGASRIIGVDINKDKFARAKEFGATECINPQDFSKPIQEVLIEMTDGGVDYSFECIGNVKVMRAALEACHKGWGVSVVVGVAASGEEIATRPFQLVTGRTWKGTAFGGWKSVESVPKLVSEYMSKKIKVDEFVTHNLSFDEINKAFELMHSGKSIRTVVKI

[4] = biological target: ADH in human serum (Class II) (Homo sapiens, UniProt P08319); test: Fluorometric measurement of serum ADH activity with substrate IIA; assay type: biochemical
ADH in human serum (Class II), sequence (P08319 whole entry): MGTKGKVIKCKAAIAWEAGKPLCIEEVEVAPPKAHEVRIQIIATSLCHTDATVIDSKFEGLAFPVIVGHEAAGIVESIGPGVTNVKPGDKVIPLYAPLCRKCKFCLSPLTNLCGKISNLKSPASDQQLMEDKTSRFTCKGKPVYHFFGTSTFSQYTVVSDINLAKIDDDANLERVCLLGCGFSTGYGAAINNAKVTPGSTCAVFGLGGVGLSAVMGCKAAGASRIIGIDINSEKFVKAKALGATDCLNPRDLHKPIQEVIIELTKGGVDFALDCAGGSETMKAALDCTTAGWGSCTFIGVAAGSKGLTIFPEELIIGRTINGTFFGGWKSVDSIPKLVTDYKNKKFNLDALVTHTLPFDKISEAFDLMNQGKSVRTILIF
Description: as §1
as §4, with “For samples with higher activity, repeat measurements were made with the serum volume reduced from 60 μl to 10 μl.” left out, “4-MeP or 4-PeP, were made by adding 50 μl of 12 mM inhibitor to the cuvette prior to the assay buffer, and the reaction was carried out as above.” left out
as §5
Using the instrumentation described in Example 1, part 7, reaction rates as low as 6.5 nM/minute for IA and 25 nM/minute for IIA were reproducible. The limits of detection, i.e.. the point at which the fluorescence change after eight minutes becomes twice the noise level, were 1 nM/minute and 5 nM/minute for the two substrates, IA and IIA, respectively. […]

stability in stock solution [1]	stability in crystalline state [1]	stability of dilute aqueous solutions [1]	Km (β1 β1 ADH (Class I))	total decrease of molar absorptivity (aldehyde/NADH system) [3]	Absorption εmax ([3]; Mes buffer (45 mM), pH 7.0)	Absorption λmax ([3]; Mes buffer (45 mM), pH 7.0)	Fluorescence .phi. (quantum yield) ([3]; Mes buffer (45 mM), pH 7.0)	Fluorescence λmax ([3]; Mes buffer (45 mM), pH 7.0)	SMILES	kcat (β1 β1 ADH (Class I))	v/v (EtOH) (β1 β1 ADH (Class I))	further results
spectral changes were not observed	stable	much less stable	4 µM	18000 M⁻¹ cm⁻¹	13,100 M^-1 cm^-1	332 nm	0.003	420 nm	COc1ccc(C=O)c2ccccc12 [IA, 4-methoxy-1-naphthaldehyde]	0.033 s⁻¹	0.08	Average rate [2]: 144.8 nM/min; rate of reduction of IA versus IIA by Class I ββ isozymes (β1 β1 ADH (Class I); words): much faster; Km (β2 β2 ADH (Class I)): nM
spectral changes were not observed	stable	much less stable	5.4 µM	12700 M⁻¹ cm⁻¹	14,400 M^-1 cm^-1	315 nm	0.22	450 nm	COc1ccc2cc(C=O)ccc2c1 [IIA, 6-methoxy-2-naphthaldehyde]	1.28 s⁻¹	4.85	Km (Class III (.chi.) ADH; Class III ADH): > 500 µM; Km (Class III (.chi.) ADH; pH 7.0, 50 μM NADH, NR = no reaction detected): > 500 µM; substrate quality for Class III ADH (Class III (.chi.) ADH; words): very poor substrate; Fluorescence .phi. (quantum yield) ([3]; in methanol): 0.03; Fluorescence λmax ([3]; in methanol): 435 nm; limit of detection ([4]; fluorescence change twice noise after eight minutes): 5 nM/min; lowest reproducible reaction rate ([4]; serum): 25 nM/min; serum activity for IIA ([4]; thirty of thirty six hospital patient sera, average): 15 ± 7 nM/min
